Test results from patent US20240139162A1, “Benzophenanthridine Alkaloids and Their Methods of Use” (Chengdu Anticancer Bioscience, LTD., priority 2019, published 2024).
“And” between values parts separate entries of the source, which are not always exact repeats. Equal entries are not always repeated. “Also recorded” adds a separate entry of the source. Where two headings read alike, the source gives them in different places.

Tests used:
RPE-MBC cells [1] = test: IC50 in RPE-MBC cells (Table 1); assay type: cell-based, human
Method: Retinal pigment epithelial cells transformed by ectopic MYC and Bcl-2 expression (RPE-MBC cells) have been described previously (e.g., Goga et al., 2007, Nat. Med., 13 (7):820-827) and were cultured in DMEM supplemented with 5% fetal bovine serum in a humidified incubator that was maintained at 5% CO2. For screening for bioactive fractions, cells were cultured in 96-well plates, and exposed to crude extracts, partially purified fractions or pure compounds at the concentrations indicated in the figure legends. Exposure was for 24 or 48 hours before analysis of cells for either an arrest in mitosis using an inverted microscope or for a change in DNA content after 4′,6′-diamidino-2-phenylindole (DAPI) staining by fluorescence microscopy.
The RPE series were derived from human retinal pigment epithelium and then stably transfected with a hTERT expression construct for immortalization. The resulting cell line was then engineered to overexpress the MYC and BCL2 oncogenes, generating the RPE MBC cell line. This cell line mimics cancer cells that overexpress MYC and Bcl2, and readily forms viable polyploid cells when cytokinesis is prevented.
(§1) Cells were split, plated in appropriate culture media and allowed to adhere. After 18 hours, corynoline and acetylcorynoline were added to a cell line selected from below. At 72 h or 96 h, MTT was added and at 75 h or 99 h, the A570 nm was recorded. The concentration ranged from 0.02 μM to 40 μM.
(§2) The effect of the compounds chelidonine and protopine on cell division was assessed similarly to corynoline and acetylcorynoline above. As described in Example 6 above, as cells enter and become arrested in mitosis, they detach from the plate surface and appear as rounded cells with a smooth surface membrane. RPE-MBC cells (ectopically expressing oncogenes MYC and Bcl2) were treated with DMSO, chelidonine and protopine, and compared against controls Michael's ketone (MK) and taxol.

RPE-MBH cells = test: IC50 in RPE-MBH cells (Table 1); assay type: cell-based, human
Method: as §1
(§3) The following RPE cell lines were used in these studies: RPE NEO, RPE MBH, RPE MBC, RPE MA, RPE MP, RPE MI, and RPE MYC Nick. This RPE series were derived from human retinal pigment epithelium and then stably transfected with an hTERT expression construct for immortalization. The resulting cell line was then engineered to overexpress the MYC oncogene (RPE-MYC) or a Neomycin selection marker gene (RPE-NEO). In RPE-MYC cells, a variety of other oncogenes such as Myr-AKT, BCL2, ID1 and PI3K^E45k were further introduced individually to generate the cell lines RPE MA, RPE MBC, RPE MI, RPE MP, respectively. As a control, H2BGFP was introduced into RPE-MYC cells to generate RPE MBH.
as §2

RPE-A19 cells = test: IC50 in RPE-A19 cells (Table 2); assay type: cell-based, human
Method: as §1, §2

RPE-Neo cells = test: IC50 in RPE-Neo cells (Table 2); assay type: cell-based, human
Method: as §1, §3, §2

IMR 90 cells = test: IC50 in IMR 90 cells (Table 2); assay type: cell-based; settings: Homo sapiens, IMR-90, 72 h
Method: as §1, §2

Rat1A cells = test: IC50 in Rat1A cells (Table 2); assay type: cell-based
Method: as §1
(§4) The following Rat1A cell lines were used in these studies: Rat1 A C, Rat1A MYC, Rat1A E2F1, and Rat1A E2F3. The cell line was then engineered as control (C), to overexpress the MYC oncogene (Rat1A-MYC), to overexpress the E2F1 oncogene (Rat1A-E2F1), or to overexpress the E2F3 oncogene (Rat1A-E2F3).
as §2

3T3 MEF cells = test: IC50 in 3T3 MEF cells (Table 2); assay type: cell-based
Method: as §1, §2

RPE-MBC cells [2] = test: Mitotic arrest (cell round-up, phospho-Histone H3) and polyploidy (DAPI) assay; assay type: cell-based, human; settings: for mitotic arrest: 24 hours after treatment; for polyploidy (DAPI staining): 48 hours after treatment; for persistence of the arrest of cells in mitosis: within 48-hour treatment
Method: For screening for bioactive fractions, cells were cultured in 96-well plates, and exposed to crude extracts, partially purified fractions or pure compounds at the concentrations indicated in the figure legends. Exposure was for 24 or 48 hours before analysis of cells for either an arrest in mitosis using an inverted microscope or for a change in DNA content after 4′,6′-diamidino-2-phenylindole (DAPI) staining by fluorescence microscopy.
(§5) Cells were cultured on coverslips in a 6-well plate, fixed with 4% paraformaldehyde and then permeabilized with 0.3% Triton X-100 in PBS. Primary antibody was detected with Texas-Red-conjugated secondary antibodies that were purchased from Jackson ImmunoResearch. After immunostaining, cells were mounted on microscope slides with 4′,6′-diamidino-2-phenylindole (DAPI)-containing Vectashield mounting solution (Vector Laboratories) for detection of fluorescence with an EVOS FL fluorescence microscope (ThermoFisher).
Cellular “round-up” was used as a surrogate marker for mitotic arrest and could easily be assayed using an inverted tissue culture microscope. […] Mitotic arrest was judged by cell round-up observed under an inverted tissue culture microscope 24 hours after exposing cells to the library.
As cells enter and become arrested in mitosis, they detach from the plate surface and appear as rounded cells with smooth surface membrane, distinct from detached cells that are undergoing programmed cell death. Simple visual screening method was used to assay thousands of extracts. […] To identify bioactive components that are able to interfere with mitosis, 3 kg of Corydalis longicalcarata rhizome were recollected and performed bioactivity-guided extraction, isolation, and purification. The air dried and powdered material was extracted with 70% ethanol assisted by exposure to ultrasonic waves.

RPE MBC cells = test: Spindle pole assembly by β-tubulin / Histone H3ser10P immunofluorescence; assay type: cell-based, human
Method: Microtubule assembly, specifically spindle pole assembly, was altered by treatment with acetylcorynoline. RPE MBC cells were treated with acetylcorynoline and Histone H3 Serine 10 Phosphorylation (Histone H3ser10p, shown in FIG. 4 and FIG. 5 in red), β-tubulin (green) and DNA (blue) was analyzed by immunofluorescence microscopy. Histone H3ser10P was used to determine the cells that were in early mitosis (e.g., prometaphase or metaphase). β-tubulin was used to examine microtubule localization and spindle assembly within the cells.
Similarly to corynoline and acetylcorynoline above, it was determined that microtubule assembly, specifically spindle pole assembly, was altered by treatment with chelidonine.

[3] = system: all tested cell lines (RPE, Rat1A and human cancer cell lines); test: MTT assay, IC50 across all of the cell lines tested; assay type: cell-based; settings: for IC50: Homo sapiens
[4] = system: RPE cell lines (RPE NEO, RPE MBH, RPE MBC, RPE MA, RPE MP, RPE MI, RPE MYC Nick); test: MTT assay, RPE cell lines expressing oncogenes; assay type: cell-based, human; settings: RPE cell lines compared with RPE NEO control (FIG. 11)
[5] = system: Rat1A cell lines (Rat1A C, Rat1A MYC, Rat1A E2F1, Rat1A E2F3); test: MTT assay, Rat1A cell lines expressing oncogenes; assay type: cell-based; settings: Rat1A cell lines compared to Rat1A C (FIG. 12)
Method: as §1, §4

aurora-B kinase = test: Phosphorylation of Histone 3 at Ser10 as surrogate of aurora-B kinase activity; assay type: cell-based
Method: as §5

[6] = system: all tested cell lines (RPE, Rat1A and human cancer cell lines); settings: positive control, read-out: known IC50 value; cited from earlier work
[7] = RPE-MBH, treatment 72 h, read-out: IC50
[8] = RPE-A19, treatment 72 h, read-out: IC50
[9] = 3T3 MEF, treatment 72 h, read-out: IC50

SMILES	IC50 (RPE-MBC cells [1]; Homo sapiens, 72 h) [µM]	IC50 (RPE-MBH cells; Homo sapiens, 72 h) [µM]	IC50 (RPE-A19 cells; Homo sapiens, 72 h) [µM]	IC50 (RPE-Neo cells; Homo sapiens, 72 h) [µM]	IC50 (IMR 90 cells) [µM]	IC50 (Rat1A cells; 72 h) [µM]	IC50 (3T3 MEF cells; Mus musculus, MEF, 72 h) [µM]	mitotic arrest (RPE-MBC cells [2])	polyploidy (DAPI staining) (RPE-MBC cells [2])	persistence of the arrest of cells in mitosis (RPE-MBC cells [2])	IC50 (RPE-MBH cells; [7])	IC50 (RPE-A19 cells; [8])	IC50 (3T3 MEF cells; [9])	further results
CN1Cc2c(ccc3c2OCO3)[C@@H]2[C@H]1c1cc3c(cc1C[C@@H]2O)OCO3 [Chelidonine, 5bR,6S,7,12bS,13,14-hexahydro-13-methyl-[1,3]benzodioxolo[5,6-c]-1,3-dioxolo[4,5-i]phenanthridin-6-ol]	> 40	2.32	1.85	1.11	2.43	1.11	1.52	Nearly all cells entered and arrested in mitosis	polyploidy was observed; also recorded: demonstrates polyploidy	transient				spindle formation (β-tubulin staining) (RPE MBC cells; 24 hours of treatment): multipolar spindles were formed; also recorded: multipolar spindle formation in mitosis; centrosomes (β-tubulin staining) (RPE MBC cells; analyzed after 24 or 48 hours): centrosome amplification and centrosome declustering
CN1Cc2c(ccc3c2OCO3)[C@@]2(C)[C@@H](O)Cc3cc4c(cc3[C@@H]12)OCO4 [Corynoline, (5bR)-5bα,13-Dimethyl-5bα,6,7,12bα,13,14-hexahydro[1,3]benzodioxolo[5,6-c]-1,3-dioxolo[4,5-i]phenanthridine-6β-ol]	8.87	15.1	10.6	7.06	> 40	8.61	12.2	can arrest mitosis within 24 hours of treatment	induce polyploidy at 48 hours	transient				IC50 [3]: 1 to 31 µM; IC50 compared with the other compound ([3]; all different cell lines): lower than acetylcorynoline; change of IC50 after overexpression of oncogenic factors [4]: all declined, with the exception of RPE MA; change of IC50 after overexpression of oncogenes [5]: increased in the Rat1 A MYC cell line; mitotic arrest (RPE-MBC cells [2]; listed as corynoline): Nearly all cells entered and arrested in mitosis; polyploidy (DAPI staining) (RPE-MBC cells [2]; listed as corynoline): Polyploidy was observed; also recorded: demonstrates polyploidy; mitotic arrest and polyploidy, dependence on concentration (RPE-MBC cells [2]; FIG. 15): concentration-dependent; phosphorylation of Histone 3 at Ser10 (aurora-B kinase): not affected
CN(C)c1ccc(C(=O)c2ccc(N(C)C)cc2)cc1 [MK, Michael's ketone, reference compound]											0.303 µM	0.087 µM	3.48 µM	IC50 (RPE-MBC cells [1]; RPE-MBC, treatment 72 h, read-out: IC50): 0.207 µM; IC50 (RPE-Neo cells; RPE-Neo, treatment 72 h, read-out: IC50): 0.805 µM; IC50 (Rat1A cells; Rat1A, treatment 72 h, read-out: IC50): 1.65 µM
CC(=O)O[C@H]1C(=O)[C@@]2(C)[C@H]([C@H](OC(=O)c3ccccc3)[C@]3(O)C[C@H](OC(=O)[C@H](O)[C@@H](NC(=O)c4ccccc4)c4ccccc4)C(C)=C1C3(C)C)[C@]1(OC(C)=O)CO[C@@H]1C[C@@H]2O [Taxol, paclitaxel]									without causing accumulation of polyploid cells	persistent arrest of cells in mitosis	22.1 µM and 22.7 µM	15.7 µM and 13 µM	0.062 µM and 0.096 µM	IC50 ([3]; across all of the cell lines tested (FIG. 9), MTT at 72 h or 96 h, read-out: IC50): < 0.02 µM; IC50 (RPE-MBC cells [1]; Homo sapiens, RPE-MBC, treatment 72 h, read-out: IC50): > 40 µM; IC50 (RPE-MBH cells; Homo sapiens, 72 h, RPE-MBH, treatment 72 h, read-out: IC50): 31.4 µM; IC50 (RPE-A19 cells; Homo sapiens, 72 h, RPE-A19, treatment 72 h, read-out: IC50): 13.4 µM; IC50 (IMR 90 cells; IMR 90, treatment 72 h, read-out: IC50): 6.98 µM; IC50 (3T3 MEF cells; Mus musculus, MEF, 72 h, 3T3 MEF, treatment 72 h, read-out: IC50): 0.075 µM; IC50 [6]: < 0.02 µM
CN1CCc2cc3c(cc2C(=O)Cc2ccc4c(c2C1)OCO4)OCO3 [protopine, 7-Methyl-6,8,9,16-tetrahydrobis[1,3]benzodioxolo[4,5-c:5′,6′-g]azecin-15(7H)-one]								Nearly all cells entered and arrested in mitosis	Polyploidy was observed	transient				
CC[C@]1(O)C[C@@H]2CN(CCc3c([nH]c4ccccc34)[C@@](C(=O)OC)(c3cc4c(cc3OC)N(C)[C@H]3[C@@](O)(C(=O)OC)[C@H](OC(C)=O)[C@]5(CC)C=CCN6CC[C@]43[C@@H]65)C2)C1 [vinblastine, reference compound]									without causing accumulation of polyploid cells	persistent arrest of cells in mitosis				
